From publication PMC11557314 (Frontiers in Pharmacology, 2024)
Where no end group is shown, it is not given here.

Test system: p38 phosphorylation in hKOPr-CHO cells
Assay: Western blot of phospho-p38 in hKOPr-CHO cells
Format: cell-based, human
Settings: 1 µM, 10 min, ratio phosphorylated to non-phosphorylated protein
Description: hKOPr-CHO cells were seeded in 10-cm dishes and cultured until they reached 70%–80% confluency. Overnight serum starvation was initiated by replacing the culture medium with FBS-free medium [DMEM supplemented with 100 μg/mL GlutaMAX, 100 μg/mL penicillin/streptomycin, and 400 μg/mL geneticin (G418)]. […] The FBS-free medium was used as the control. After the treatment, cells were rinsed and harvested in cold PBS by scraping the dishes using a rubber policeman. Cell suspensions were centrifuged at 4°C for 7 min at 21,000 g, and the supernatants were removed. Pellets were then resuspended and washed in ice-cold PBS. […] Total proteins of the supernatant cell lysate were quantified by the biuret assay (Carl Roth GmbH, Karlsruhe, Germany). Antibody linearity ranges were determined for target proteins and the internal loading control, and the combined linear range was then used to determine how much sample should be loaded in order to produce a linear signal response. […] Immunoreactive bands were detected by incubating the membranes in a horseradish peroxidase-conjugated secondary antibody (1:5,000, Invitrogen), followed by incubation with enhanced chemiluminescence reagent (Merck Immobilon). […] To avoid errors introduced by stripping the membranes, total and phosphorylated proteins were analyzed from parallel gels. […]

## YGGFSRRQFKVVT [DynB_L5S]
  p38 phosphorylation compared to DynB_WT: significantly less phosphorylated

## YGAFLRRAFKVVT [DynB_G3A/Q8A]
  p38 phosphorylation compared to DynB_WT: significantly less phosphorylated
